According to patent US11364231B2, “Methods of treating radiation induced gastrointestinal syndrome (RIGS) and related disease states using YEL002/BCN057” (priority 2017, dated 2022):
“Also recorded” adds a separate entry of the source.

Assays:
[1] = system: human colonic organoid developed from non-malignant tissue; test: Irradiated human colonic organoids from non-malignant tissue; assay type: cell-based
Experimental: FIG. 13. […] Note presence of budding crypt like structure in BCN057 treated group.
(§1) To examine the effect of BCN057 on human intestinal, epithelial tissue surgical specimen collected from normal colon at least 10 cm apart from malignant site was used to develop ex vivo crypt organoid. At a dose level of 8 Gy all the budding crypts have been disappeared in the organoids. […] The effect of BCN057 on mRNA level of β-catenin target genes in organoids was also evaluated.

[2] = system: HEK293 cells having TCF/LEF luciferase reporter construct; test: TCF/LEF (Topflash) reporter assay; assay type: cell-based, human; details: graded doses of BCN057 vs vehicle control, 24 hr
Experimental: To determine the canonical WNT activity of BCN057 HEK293 cells (Signosis, Santa Clara, Calif.) having TCF/LEF luciferase reporter construct were treated with BCN057 or vehicle control or PBS. LiCl (10 mM) treatment was used as positive control for luciferase activity. Luciferase activity was determined 24 hr after using Dual-Luciferase Reporter Assay System (Promega) as per manufacturer's protocol. HEK293 cells having FOPFLASH construct (mutated TCF/LEF-binding site) were used as negative control. HEK293 (human embryonic kidney) cell line was routinely characterized in the lab based on morphology and gene-expression patterns. Cells were confirmed to be free of mycoplasma contamination.

WNT target genes = test: qPCR of WNT target genes in irradiated human colonic organoids; assay type: cell-based; details: epithelial cells from irradiated human colonic organoids treated with BCN057
Experimental: (B-C, Data was the average of 3 human subjects).
as §1

[3] = system: Lgr5+ve ISC in Lgr5/GFP-IRES-Cre-ERT2 knock-in mice; test: Lgr5+ve ISC survival in vivo after AIR; details: 15 Gy AIR then BCN057; beyond 48 hrs post AIR, p<0.001
Text: To study this effect in vivo, the role of BCN057 in ISC survival was examined by exposing Lgr5/GFP-IRES-Cre-ERT2 knock-in mice to 15 Gy to AIR and then treated with BCN057. Lgr5+ve ISC had disappeared from crypt base within 48 hrs post AIR in untreated mice.

MC38 colon tumor = MC38 colon tumor in the flank with AIR; assay type: in vivo, mice
Text: FIG. 18. […] I) Schematic diagram of BCN057 treatment in C57B16 mice having MC38 colon tumor in the flank. Mice were exposed to AIR (15Gy) and then treated with BCN057 at 24 hrs post exposure. Ii) Representative image of C57B16 mice having MC38 colon tumor in the flank. Note reduction in tumor size in irradiated or un-irradiated tumor treated with BCN057 at day 20 post AIR. Mice exposed to AIR without BCN057 treatment are not part of this image as they died within day 15 post AIR.
Subcutaneous tumors were developed by injecting MC38 colon cancer cell in the flank. Mice with palpable, subcutaneous tumor were treated with AIR (16Gy) followed by eight doses of BCN057. AIR reduced the tumor growth but invariably produced 100% mortality of animals with a median survival time of 14+2 days.
Mice were injected subcutaneously with 1×105 MC38 (colon carcinoma cell line) cells on the flank, respectively. About 10 days later, the tumor became palpable (3-5 mm in diameter), whereupon abdominal irradiation 16 Gy was delivered. Mice were divided into 4 groups (n=10/group) receiving no treatment, AIR, BCN057 and BCN057 plus AIR. Animals received BCN057 eight times starting 24 hrs after AIR. Tumor measurements were performed thrice weekly using Vernier calipers along with simultaneous physical assessment of signs of systemic toxicity (malaise and diarrhea).

NCI 60 cancer cell lines = test: NCI 60 cancer cell line screen; assay type: cell-based; details: BCN057 10 uM, 48 hours, sulforhodamine B assay
Experimental: BCN057 was first examined in the National Cancer Institute (NCI) 60 cancer cell line platform. Several of these cell lines are known to be positive for dysregulation of the Wnt/b-catenin signaling pathway. […] Next we examined the effect of BCN057 in human colonic tumor derived organoids exposed to irradiation.
100 μL of each cell preparation was tested in accordance with its particular type and density, ranging from 5000-40,000 cells per well in a 96-well microtiter plate, corresponding to their own growth rate. BCN057 was evaluated 10 uM and incubation for 48 hours in a 5% CO2 atmosphere with 100% humidity. Proliferation was assayed using the sulforhodamine B assay with a plate reader to read the optical densities.

[4] = system: irradiated intestinal epithelium (jejunum); test: Jejunum histology and crypt proliferation after AIR; assay type: in vivo
[5] = system: irradiated intestinal epithelium (jejunum); test: as above; assay type: in vivo; remark: listed apart in the source
Text: Since radiation doses>8 Gy induces cell cycle arrest and apoptosis of the crypt epithelial cells within day 1 post-radiation, resulting in a decrease in regenerating crypt colonies by day 3.5 and ultimately villi denudation by day 7 post-radiation exposure, animals were sacrificed when moribund or at 3.5 days after AIR for time course experiments and intestines were collected for histology. The intestine of each animal was dissected, washed in PBS to remove intestinal contents and the jejunum was fixed in 10% neutral-buffered formalin before paraffin embedding. Tissue was routinely processed and cut into 5 μm sections for haematoxylin and eosin and immunohistochemical staining. All haemotoxylin and eosin (HE) (Fisher Scientific, Pittsburgh, Pa.) staining was performed at the Pathology Core Facility in the KUMC Cancer Center.
To visualize villous cell proliferation mid-jejunum was collected for paraffin embedding and Ki67 immunohistochemistry. Tissue sections were routinely deparaffinized and rehydrated through graded alcohols and incubated overnight at room temperature with a monoclonal anti Ki67 antibody. Nuclear staining was visualized using streptavidin-peroxidase and diaminobenzidine (DAB) and samples were lightly counterstained with haematoxylin. […] The proliferation rate was calculated as the percentage of KI67-positive cells over the total number of cells in each crypt. A total of 60 crypts were examined per animal.
Crypt depth was independently and objectively analyzed and quantitated in a blind manner from coded digital photographs of crypts from HE-stained slides using ImageJ 1.37 software to measure the height in pixels from the bottom of the crypt to the crypt villus junction. Villi length was determined by measuring the length from the crypt villus junction to villous tip. This measurement in pixels was converted to length (in μm) by dividing with the following a conversion factor (1.46 pixels μm-1).

[6] = jejunum, BCN057 at 24 hrs after AIR vs irradiated control

## COc1ccc2cc(-c3nc4ccc(C)cn4c3NCc3ccco3)c(=O)[nH]c2c1 [BCN057, 3-(3((furan-2-ylmethyl)ammo)-6-methylimidazo[1,2-a]pyridine-2-yl)-6-methoxyquinolin-2(1H)-one]
[1]; 8Gy, BCN057 (20 ug/ml) at 1 hr post irradiation, 72 hrs
  budding crypts / organoid structure: complete restitution of organoid structure; also recorded: rescued the organoids from radiation toxicity
[1]; 8Gy, BCN057 treated organoids
  Ki67 staining in budding crypt like structure: positive staining
[1]; irradiated organoids 4Gy and 8Gy, vs untreated irradiated control
  ratio of budding crypt to total number of crypts: increased
[2]
  Luciferase activity (WNT activity): significant increase; also recorded: higher Luciferase activity; also recorded: strong WNT activity
WNT target genes
  mRNA level of WNT / β-catenin target genes: several fold increase; also recorded: increases
[3]
  Lgr5+ve ISC in jejunal crypts: significant preservation; also recorded: presence of GFP+ve Lgr5+ve ISCs
MC38 colon tumor; AIR (16Gy) followed by eight doses of BCN057, AIR alone 100% mortality, n=10
  mice surviving beyond 30 days: 75%
MC38 colon tumor; AIR + BCN057 vs un-irradiated untreated control
  tumor growth: significant tumor growth retardation; also recorded: significant reduction of tumor growth
MC38 colon tumor; BCN057 in un-irradiated mice vs un-irradiated untreated control
  tumor growth: reduces the tumor growth
MC38 colon tumor; BCN057 post AIR vs AIR alone
  survival time: significant improvement in survival time
NCI 60 cancer cell lines
  proliferative response: None of these cells showed any proliferative response
[4]; BCN057 treated vs untreated irradiated control, p<0.0005
  percent of BrdU+ve crypt epithelial cells: significantly higher
[4]; non-irradiated mice treated with BCN057
  crypt villus morphology and BRDU incorporation: did not induce any changes
[5]; BCN057 at 24 hrs after AIR vs irradiated control
  number of crypt in jejunum: increase in number of crypts
[5]; jejunum, 3.5 day after AIR, BCN057 at 24 hrs post AIR
  crypt villus structure / epithelium (HE staining): normal crypt villus structure; also recorded: restitution of epithelium
[5]; [6]
  % of Ki67 positive crypt cells: increase in crypt cell proliferation
  Crypt Depth villi length: preserved villous length; also recorded: increase
